From US20240116985A1, “STAPLED PEPTIDES AND METHODS THEREOF” (priority 2020, published 2024)
Values after ≈ are worked out from the molar mass of the structure shown. Where two headings read alike, the source gives them in different places.

Experiments:
Solubility in PBS = assay type: physicochemical
Outline: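 Steps: ultracentrifuge the peptide PBS solution, inject the supernatant on HPLC, inject a 50 μM peptide DMSO solution as reference, then calculate solubility as area ratio (PBS/DMSO) × 50 uM.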

[1] = target: T1, full-length beta-Catenin (Uniprot ID P35222) (Homo sapiens, UniProt P35222); experiment: Fluorescence polarization IC50 (beta-catenin / 5FAM-TCF4 10-53 competition); assay type: binding
T1 construct: 10 nM full-length beta-Catenin (Uniprot ID P35222)
T1 sequence (P35222 1-781): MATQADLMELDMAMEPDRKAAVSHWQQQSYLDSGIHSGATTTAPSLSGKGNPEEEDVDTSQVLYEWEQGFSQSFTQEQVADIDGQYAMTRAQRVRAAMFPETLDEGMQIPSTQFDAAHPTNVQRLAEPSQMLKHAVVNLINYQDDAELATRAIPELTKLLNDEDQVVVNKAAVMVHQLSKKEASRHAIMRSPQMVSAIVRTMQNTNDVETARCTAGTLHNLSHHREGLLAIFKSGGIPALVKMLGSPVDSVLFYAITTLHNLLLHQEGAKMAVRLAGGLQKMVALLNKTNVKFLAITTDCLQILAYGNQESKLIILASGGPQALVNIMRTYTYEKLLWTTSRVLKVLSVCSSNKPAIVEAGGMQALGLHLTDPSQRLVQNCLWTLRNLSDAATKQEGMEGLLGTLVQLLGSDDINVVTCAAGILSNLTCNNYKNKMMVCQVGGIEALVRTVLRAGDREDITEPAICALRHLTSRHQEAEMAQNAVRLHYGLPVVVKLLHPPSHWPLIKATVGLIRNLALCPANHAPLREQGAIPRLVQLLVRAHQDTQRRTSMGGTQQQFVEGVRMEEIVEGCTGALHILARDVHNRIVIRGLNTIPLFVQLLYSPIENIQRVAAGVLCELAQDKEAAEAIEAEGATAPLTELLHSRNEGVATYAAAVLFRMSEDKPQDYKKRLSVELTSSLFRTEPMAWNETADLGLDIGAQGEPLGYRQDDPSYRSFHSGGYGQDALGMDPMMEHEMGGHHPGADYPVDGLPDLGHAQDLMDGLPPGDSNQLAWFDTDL

CHI Log D procedure = assay type: physicochemical; details: for CHI Log D: pH 7.4; for chromatographic logD / logD: pH 7.4, CHI Log D
[2] = Table E2-1, read-out: beta-Catenin FP IC50
[3] = fluorescence polarization, beta-catenin, read-out: FP EC50
[4] = fluorescence polarization, read-out: beta-Catenin FP IC50

Compound | Solubility (Solubility in PBS) [µM] | IC50 [1, 2] [µM] | IC50 [1, 3] [µM] | CHI Log D (CHI Log D procedure) | IC50 [1, 4] [µM] | chromatographic logD (CHI Log D procedure) | logD (CHI Log D procedure) | Solubility (Solubility in PBS; Solubility (uM)) [µM] | IC50 ([1]; read-out: FP EC50) [µM]
CC(=O)N1CCC[C@]12CC=CCCCC1(CCCC=CCCCCCC[C@@](C)(C(=O)N[C@@H](Cc3cccc(F)c3)C(=O)N[C@@H](Cc3csc4ccccc34)C(=O)N[C@@H](CCC(N)=O)C(N)=O)NC(=O)[C@H](C(C)C)NC(=O)[C@H](Cc3ccccc3)NC(=O)[C@H](C)NC(=O)[C@H](C)NC(=O)[C@H](CC(N)=O)NC(=O)[C@H](CC(=O)O)NC1=O)NC(=O)[C@H](C)NC(=O)[C@H](CC(=O)O)NC2=O (stereo partly drawn) [I-382, Ac-PL3-Asp-Ala-B5-Asp-Asn-Ala-Ala-Phe-Val-S8-3FF-BztA-Gln-NH2] | 10 (≈ 18.2 µg/mL) | 2.06 | 2.06 | 2.631 |  |  |  |  | 
CC(=O)N1CCC[C@]12CC=CCCCC1(CCCC=CCCCCCC[C@@](C)(C(=O)N[C@@H](Cc3ccccn3)C(=O)N[C@@H](Cc3csc4ccccc34)C(=O)N[C@@H](CCC(N)=O)C(N)=O)NC(=O)[C@H](C(C)C)NC(=O)[C@H](Cc3ccccc3)NC(=O)[C@H](C)NC(=O)[C@H](C)NC(=O)[C@H](CCC(=O)O)NC(=O)[C@H](CC(=O)O)NC1=O)NC(=O)[C@H](C)NC(=O)[C@H](CC(=O)O)NC2=O (stereo partly drawn) [I-384, Ac-PL3-Asp-Ala-B5-Asp-Glu-Ala-Ala-Phe-Val-S8-2pyrA-BztA-Gln-NH2] | 45 (≈ 81.6 µg/mL) | 0.177 | 0.177 | 1.837 |  |  |  |  | 
CC(=O)N1CCC[C@]12CC=CCCCC1(CCCC=CCCCCCC[C@@](C)(C(=O)N[C@@H](Cc3ccncc3)C(=O)N[C@@H](Cc3csc4ccccc34)C(=O)N[C@@H](CCC(N)=O)C(N)=O)NC(=O)[C@H](C(C)C)NC(=O)[C@H](Cc3ccccc3)NC(=O)[C@H](C)NC(=O)[C@H](C)NC(=O)[C@H](CCC(=O)O)NC(=O)[C@H](CC(=O)O)NC1=O)NC(=O)[C@H](C)NC(=O)[C@H](CC(=O)O)NC2=O (stereo partly drawn) [I-385, Ac-PL3-Asp-Ala-B5-Asp-Glu-Ala-Ala-Phe-Val-S8-4pyrA-BztA-Gln-NH2] | 50 (≈ 90.7 µg/mL) |  |  |  | 3.15 | 1.71 |  |  | 
CC(=O)N1CCC[C@]12CC=CCCCC1(CCCC=CCCCCCC[C@@](C)(C(=O)N[C@@H](Cc3ccccc3)C(=O)N[C@@H](Cc3csc4ccccc34)C(=O)N[C@@H](CCC(N)=O)C(N)=O)NC(=O)[C@H](C(C)C)NC(=O)[C@H](Cc3ccccn3)NC(=O)[C@H](C)NC(=O)[C@H](C)NC(=O)[C@H](CCC(=O)O)NC(=O)[C@H](CC(=O)O)NC1=O)NC(=O)[C@H](C)NC(=O)[C@H](CC(=O)O)NC2=O (stereo partly drawn) [I-387, Ac-PL3-Asp-Ala-B5-Asp-Glu-Ala-Ala-2pyrA-Val-S8-Phe-BztA-Gln-NH2] | 48 (≈ 87 µg/mL) |  | 2.62 | 2.136 | 2.62 |  |  |  | 
CC(=O)N1CCC[C@]12CC=CCCCC1(CCCC=CCCCCCC[C@@](C)(C(=O)N[C@@H](Cc3ccccc3)C(=O)N[C@@H](Cc3csc4ccccc34)C(=O)N[C@@H](CCC(N)=O)C(N)=O)NC(=O)[C@H](C(C)C)NC(=O)[C@H](Cc3cccc(F)c3F)NC(=O)[C@H](C)NC(=O)[C@H](C)NC(=O)[C@H](CCC(=O)O)NC(=O)[C@H](CC(=O)O)NC1=O)NC(=O)[C@H](C)NC(=O)[C@H](CC(=O)O)NC2=O (stereo partly drawn) [I-390, Ac-PL3-Asp-Ala-B5-Asp-Glu-Ala-Ala-23FF-Val-S8-Phe-BztA-Gln-NH2] | 10 (≈ 18.5 µg/mL) |  | 3.42 | 2.587 | 3.42 |  |  |  | 
CC(=O)N1CCC[C@]12CC=CCCCC1(CCCC=CCCCCCC[C@@](C)(C(=O)N[C@@H](Cc3ccccc3)C(=O)N[C@@H](Cc3csc4ccccc34)C(=O)N[C@@H](CCC(N)=O)C(N)=O)NC(=O)[C@H](C(C)C)NC(=O)[C@H](Cc3cccc(F)c3F)NC(=O)[C@H](C)NC(=O)[C@H](C)NC(=O)[C@H](CCC(=O)O)NC(=O)[C@H](CC(=O)O)NC1=O)NC(=O)[C@H](C)NC(=O)[C@H](CC(=O)O)NC2=O (stereo partly drawn) [I-391, Ac-PL3-Asp-Ala-B5-Asp-Glu-Ala-Ala-23FF-Val-S8-Phe-BztA-Gln-NH2] | 10 (≈ 18.5 µg/mL) |  | 1.91 | 2.585 | 1.91 |  |  |  | 
CC(=O)N1CCC[C@]12CC=CCCCC1(CCCC=CCCCCCC[C@@](C)(C(=O)N[C@@H](Cc3ccccc3)C(=O)N[C@@H](Cc3csc4ccccc34)C(=O)N[C@@H](CCC(N)=O)C(N)=O)NC(=O)[C@H](C(C)C)NC(=O)[C@H](CC3CCCC3)NC(=O)[C@H](C)NC(=O)[C@H](C)NC(=O)[C@H](CCC(=O)O)NC(=O)[C@H](CC(=O)O)NC1=O)NC(=O)[C@H](C)NC(=O)[C@H](CC(=O)O)NC2=O (stereo partly drawn) [I-392, Ac-PL3-Asp-Ala-B5-Asp-Glu-Ala-Ala-CypA-Val-S8-Phe-BztA-Gln-NH2] | 10 (≈ 18 µg/mL) |  |  |  | 5 |  | 2.52 |  | 
CC(=O)N1CCC[C@]12CC=CCCCC1(CCCC=CCCCCCC[C@@](C)(C(=O)N[C@@H](CC3CCCC3)C(=O)N[C@@H](Cc3csc4ccccc34)C(=O)N[C@@H](CCC(N)=O)C(N)=O)NC(=O)[C@H](C(C)C)NC(=O)[C@H](Cc3ccccc3)NC(=O)[C@H](C)NC(=O)[C@H](C)NC(=O)[C@H](CCC(=O)O)NC(=O)[C@H](CC(=O)O)NC1=O)NC(=O)[C@H](C)NC(=O)[C@H](CC(=O)O)NC2=O (stereo partly drawn) [I-393, Ac-PL3-Asp-Ala-B5-Asp-Glu-Ala-Ala-Phe-Val-S8-CypA-BztA-Gln-NH2] | 10 (≈ 18 µg/mL) |  |  |  | 1.95 |  | 2.64 |  | 
CC(=O)N1CCC[C@]12CC=CCCCC1(CCCC=CCOC(=O)N(C)CCC[C@@](C)(C(=O)N[C@@H](Cc3cccc(F)c3)C(=O)N[C@@H](Cc3csc4ccccc34)C(=O)N[C@@H](CCC(N)=O)C(N)=O)NC(=O)[C@H](C(C)C)NC(=O)[C@H](Cc3ccccc3)NC(=O)[C@H](C)NC(=O)[C@H](C)NC(=O)[C@H](Cc3c[nH]cn3)NC(=O)[C@H](CC(=O)O)NC1=O)NC(=O)[C@H](C)NC(=O)[C@H](CC(=O)O)NC2=O (stereo partly drawn) [I-398, Ac-PL3-Asp-Ala-B5-Asp-His-Ala-Ala-Phe-Val-SeN-3FF-BztA-Gln-NH2] |  |  |  |  | 2.15 | 1.85 |  | 46 (≈ 86.6 µg/mL) | 
CC(=O)N1CCC[C@]12CC=CCCCC1(CCCC=CCCCCCC[C@@](C)(C(=O)N[C@@H](Cc3ccccc3)C(=O)N[C@@H](Cc3csc4ccccc34)C(=O)N[C@@H](CCC(N)=O)C(N)=O)NC(=O)[C@H](CCC(N)=O)NC(=O)[C@H](Cc3ccccc3)NC(=O)[C@H](C)NC(=O)[C@H](C)NC(=O)[C@H](CCC(=O)O)NC(=O)[C@H](CC(=O)O)NC1=O)NC(=O)[C@H](C)NC(=O)[C@H](CC(=O)O)NC2=O (stereo partly drawn) [I-406, Ac-PL3-Asp-Ala-B5-Asp-Glu-Ala-Ala-Phe-Gln-S8-Phe-BztA-Gln-NH2] |  |  |  |  | 0.094 | 2.04 |  | 28 (≈ 51.6 µg/mL) | 
CC[C@H](C)[C@@H]1NC(=O)[C@H](CC(=O)O)NC(=O)[C@]2(CC=CCCCC3(CCCC=CCCCCCC[C@@](C)(C(=O)N[C@@H](Cc4ccccc4)C(=O)N[C@@H](Cc4csc5ccccc45)C(N)=O)NC(=O)[C@H](CCC(N)=O)NC(=O)[C@H](Cc4ccccc4)NC(=O)[C@H](C)NC(=O)[C@H](C)NC(=O)[C@H](CCC(=O)O)NC(=O)[C@H](CC(=O)O)NC3=O)NC1=O)CCCN2C(C)=O (stereo partly drawn) [I-408, Ac-PL3-Asp-Ile-B5-Asp-Glu-Ala-Ala-Phe-Gln-S8-Phe-BztA-NH2] | 50 (≈ 87.8 µg/mL) |  |  | 2.674 | 0.12 |  |  |  | 0.12
CC[C@H](C)[C@@H]1NC(=O)[C@H](CC(=O)O)NC(=O)[C@]2(CC=CCCCC3(CCCC=CCCCCCC[C@@](C)(C(=O)N[C@@H](Cc4ccccc4)C(=O)N[C@@H](Cc4csc5ccccc45)C(N)=O)NC(=O)[C@H](CCC(N)=O)NC(=O)[C@H](Cc4ccccc4)NC(=O)[C@H](C)NC(=O)[C@H](C)NC(=O)[C@H](CCC(=O)O)NC(=O)[C@H](CC(=O)O)NC3=O)NC1=O)CCCN2C(C)=O (stereo partly drawn) [I-409, Ac-PL3-Asp-Ile-B5-Asp-Glu-Ala-Ala-Phe-Gln-S8-Phe-BztA-NH2] | 48 (≈ 84.2 µg/mL) |  |  | 2.741 | 0.07 |  |  |  | 0.07
CC(=O)N1CCC[C@]12CC=CCCCC1(CCCC=CCCCCCC[C@@](C)(C(=O)N[C@@H](Cc3ccccc3)C(=O)N[C@@H](Cc3csc4ccccc34)C(=O)N[C@@H](CCC(N)=O)C(N)=O)NC(=O)[C@H](CCC(N)=O)NC(=O)[C@H](Cc3ccccc3)NC(=O)[C@H](C)NC(=O)[C@H](C)NC(=O)[C@H](CCC(=O)O)NC(=O)[C@H](CC(=O)O)NC1=O)NC(=O)[C@H](C(C)C)NC(=O)[C@H](CC(=O)O)NC2=O (stereo partly drawn) [I-410, Ac-PL3-Asp-Val-B5-Asp-Glu-Ala-Ala-Phe-Gln-S8-Phe-BztA-Gln-NH2] | 50 (≈ 93.5 µg/mL) |  |  |  | 0.05 | 2.26 |  |  | 
